Data on 1 compound can be found in patent US20220110886A1, “OPTIMIZATION OF SCENT OR FLAVOR COMPOSITIONS” (Aromyx Corporation, priority 2019, published 2022).

One assay addresses T1, OR11H7P (Homo sapiens, UniProt Q8NGC8).
T1 construct: expressed in transfected cells; host or cells: HEK293T
T1 sequence (Q8NGC8 1-314): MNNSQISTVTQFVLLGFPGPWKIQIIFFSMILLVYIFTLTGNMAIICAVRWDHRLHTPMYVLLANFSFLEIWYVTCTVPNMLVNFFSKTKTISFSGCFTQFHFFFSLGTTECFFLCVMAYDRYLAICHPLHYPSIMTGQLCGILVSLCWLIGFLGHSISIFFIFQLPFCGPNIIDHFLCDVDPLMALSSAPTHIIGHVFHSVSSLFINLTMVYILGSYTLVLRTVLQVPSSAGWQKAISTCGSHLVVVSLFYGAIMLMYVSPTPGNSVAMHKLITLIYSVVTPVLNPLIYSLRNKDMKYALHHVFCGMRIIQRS
As to the kind of experiment: Olfactory receptor cAMP signaling in transfected HEK293T cells exposed to menthol. The following applies: 11H7P, menthol 1 nM to 1 mM, cAMP production. The format is cell-based. The method, then: (§1) When creating an age-related flavor profile for menthol, identification of the olfactory receptors that respond to menthol may be accomplished by transfecting human olfactory receptor cDNA sequences in HEK293T co-expressing accessory factors for odorant receptor expression (see, e.g., Saito, H., et al., Cell 119:679-691 (2004)). Transfected cells may then be exposed to serial dilutions of menthol from 1 nM to 1 mM in growth medium, and receptor signaling may be measured by cAMP production in the cell using a commercial assay.
(§2) Next, positive olfactory receptors may be identified by increased signaling when exposed to at least one menthol concentration compared to control cells that have not been transfected. In each case, an EC50 is defined for the receptor versus menthol. Olfactory receptors OR1G1, 8K3, 2W1, 2J2, 11H7P and 51E1 have been identified by this method as menthol-sensitive olfactory receptors.
(In general: cAMP levels reflect the balance of adenylyl cyclase and phosphodiesterase activity.)

Another assay has as its target T2, OR1G1 (Homo sapiens, UniProt P47890).
T2 construct: expressed in transfected cells; host or cells: HEK293T
T2 sequence (P47890 1-313): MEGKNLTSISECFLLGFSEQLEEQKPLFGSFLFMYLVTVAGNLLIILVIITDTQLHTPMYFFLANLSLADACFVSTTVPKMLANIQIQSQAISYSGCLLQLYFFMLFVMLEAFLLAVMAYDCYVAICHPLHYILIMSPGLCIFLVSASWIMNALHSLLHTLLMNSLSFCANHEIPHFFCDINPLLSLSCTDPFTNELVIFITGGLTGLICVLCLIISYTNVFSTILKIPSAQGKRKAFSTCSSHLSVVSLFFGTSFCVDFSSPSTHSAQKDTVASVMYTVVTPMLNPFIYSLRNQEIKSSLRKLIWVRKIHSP
The assay is described as above. The format is cell-based. The following applies: menthol 1 nM to 1 mM, cAMP production. The method, then:
as §1, §2

A further assay addresses T3, OR2J2 (Homo sapiens, UniProt O76002).
T3 construct: expressed in transfected cells; host or cells: HEK293T
T3 sequence (O76002 1-312): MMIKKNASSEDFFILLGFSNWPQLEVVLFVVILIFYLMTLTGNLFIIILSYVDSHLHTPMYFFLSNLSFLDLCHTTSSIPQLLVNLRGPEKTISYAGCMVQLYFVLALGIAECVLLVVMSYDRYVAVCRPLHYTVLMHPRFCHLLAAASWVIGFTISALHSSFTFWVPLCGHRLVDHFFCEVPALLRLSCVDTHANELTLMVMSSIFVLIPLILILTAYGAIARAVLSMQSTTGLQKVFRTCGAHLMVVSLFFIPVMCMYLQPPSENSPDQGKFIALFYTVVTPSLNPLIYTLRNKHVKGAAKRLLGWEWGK
The description is as above. The format is cell-based. Conditions: 2J2, menthol 1 nM to 1 mM, cAMP production. How it is done:
as §1, §2

The target of another assay is T4, OR2W1 (Homo sapiens, UniProt Q9Y3N9).
T4 construct: expressed in transfected cells; host or cells: HEK293T
T4 sequence (Q9Y3N9 1-320): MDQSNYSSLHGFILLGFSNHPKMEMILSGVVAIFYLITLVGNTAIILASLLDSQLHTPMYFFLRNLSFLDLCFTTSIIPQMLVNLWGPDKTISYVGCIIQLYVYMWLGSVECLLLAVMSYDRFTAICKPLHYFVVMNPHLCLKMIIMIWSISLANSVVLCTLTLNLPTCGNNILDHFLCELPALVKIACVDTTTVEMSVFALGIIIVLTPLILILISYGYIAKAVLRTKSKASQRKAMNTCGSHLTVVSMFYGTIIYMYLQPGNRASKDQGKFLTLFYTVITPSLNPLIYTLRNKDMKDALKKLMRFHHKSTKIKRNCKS
The assay is described as above. The class given is cell-based. The following applies: 2W1, menthol 1 nM to 1 mM, cAMP production. How it is done: as §1, §2

The target in the next assay is T5, OR51E1 (Homo sapiens, UniProt Q8TCB6).
T5 construct: expressed in transfected cells; host or cells: HEK293T
T5 sequence (Q8TCB6 1-318): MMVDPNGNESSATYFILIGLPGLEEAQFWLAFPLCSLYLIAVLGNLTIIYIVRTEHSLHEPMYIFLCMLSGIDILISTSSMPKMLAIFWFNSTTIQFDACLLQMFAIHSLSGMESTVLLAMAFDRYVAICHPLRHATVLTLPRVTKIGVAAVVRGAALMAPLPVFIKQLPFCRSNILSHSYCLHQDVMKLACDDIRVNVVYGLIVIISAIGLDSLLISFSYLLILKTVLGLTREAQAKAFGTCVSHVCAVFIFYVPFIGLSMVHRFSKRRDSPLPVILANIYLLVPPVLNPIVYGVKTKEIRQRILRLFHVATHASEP
Described as above. The format is cell-based. The following applies: 51E1, menthol 1 nM to 1 mM, cAMP production. The method, then: as §1, §2

A further assay has as its target T6, OR8K3 (Homo sapiens, UniProt Q8NH51).
T6 construct: expressed in transfected cells; host or cells: HEK293T
T6 sequence (Q8NH51 1-312): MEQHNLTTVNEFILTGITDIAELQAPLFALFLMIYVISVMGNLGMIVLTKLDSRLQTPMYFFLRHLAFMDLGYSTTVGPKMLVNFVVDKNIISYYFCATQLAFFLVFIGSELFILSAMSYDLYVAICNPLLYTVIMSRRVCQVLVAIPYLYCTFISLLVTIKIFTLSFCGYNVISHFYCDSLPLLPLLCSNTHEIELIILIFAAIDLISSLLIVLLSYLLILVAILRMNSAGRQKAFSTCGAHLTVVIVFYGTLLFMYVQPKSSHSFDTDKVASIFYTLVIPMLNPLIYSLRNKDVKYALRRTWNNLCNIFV
Described as above. The format is cell-based. The following applies: 8K3, menthol 1 nM to 1 mM, cAMP production. The method, then:
as §1, §2

The conditions of assay [1]: adults relative to children; cited from earlier work.

In the case of `CC1CCC(C(C)C)C(O)C1` (stereo not shown) [menthol], the “receptor identified as menthol-sensitive (increased signaling vs non-transfected control cells)” value at OR11H7P, at OR1G1, at OR2J2, on OR2W1, on OR51E1 and at OR8K3 was “menthol-sensitive” throughout. The “menthol concentration adults require to perceive the same level of intensity as children” value in assay [1] is given as “approximately two”.
